Laboratory results from PubChem BioAssay AID330 (DTP/NCI, 2004).
Values joined by “and” are separate entries in the source; they are usually repeats but may differ in a detail not shown here. Identical values can stand only once. Toxic doses and inconclusive results are not listed. How the source made its calls: active means survival T/C of 150% or more; inactive means T/C below 125% in these data.

Tested on: P388 leukemia ip, CD2F1 mice, survival T/C
Assay: NCI In Vivo Anticancer Drug Screen. Data for tumor model P388 Leukemia (intraperitoneal) in CD2F1 (CDF1) mice
Settings: endpoint: median survival time, higher = longer survival
In short: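 Mice carrying the transplanted tumor received test compound or vehicle. Survival was recorded in each group, and the value is the treated-group measurement divided by that of the vehicle-treated control group.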

[1] = dose: 12.5 mg/kg/injection, schedule: Q01DX005 (ip), vehicle: Klucel (hydroxypropylcellulose) (HPC)
[2] = dose: 25.0 mg/kg/injection, schedule: Q01DX005 (ip), vehicle: Klucel (hydroxypropylcellulose) (HPC)
[3] = dose: 50.0 mg/kg/injection, schedule: Q01DX005 (ip), vehicle: Klucel (hydroxypropylcellulose) (HPC)
[4] = dose: 50.0 mg/kg/injection, schedule: Q01DX005 (ip), vehicle: saline with Tween-80
[5] = dose: 100.0 mg/kg/injection, schedule: Q01DX005 (ip), vehicle: saline with Tween-80
[6] = dose: 100.0 mg/kg/injection, schedule: Q01DX009 (ip), vehicle: saline
[7] = dose: 200.0 mg/kg/injection, schedule: Q01DX009 (ip), vehicle: saline
[8] = dose: 25.0 mg/kg/injection, schedule: Q01DX009 (ip), vehicle: saline
[9] = dose: 50.0 mg/kg/injection, schedule: Q01DX009 (ip), vehicle: saline

Measured: T/C

Cc1cc(O)c2c(c1O)C(=O)c1cccc(O)c1C2=O
inactive: dose: 0.75 mg/kg/injection, schedule: Q01DX009 (ip), vehicle: Klucel (hydroxypropylcellulose) (HPC) 108 % of control | dose: 1.5 mg/kg/injection, schedule: Q01DX009 (ip), vehicle: Klucel (hydroxypropylcellulose) (HPC) 115 % of control | dose: 3.0 mg/kg/injection, schedule: Q01DX005 (ip), vehicle: Klucel (hydroxypropylcellulose) (HPC) 99 % of control | dose: 3.0 mg/kg/injection, schedule: Q01DX009 (ip), vehicle: Klucel (hydroxypropylcellulose) (HPC) 90 % of control | dose: 6.0 mg/kg/injection, schedule: Q01DX005 (ip), vehicle: Klucel (hydroxypropylcellulose) (HPC) 106 % of control | dose: 6.0 mg/kg/injection, schedule: Q01DX009 (ip), vehicle: Klucel (hydroxypropylcellulose) (HPC) 114 % of control | dose: 12.0 mg/kg/injection, schedule: Q01DX005 (ip), vehicle: Klucel (hydroxypropylcellulose) (HPC) 101 % of control | dose: 12.0 mg/kg/injection, schedule: Q01DX009 (ip), vehicle: Klucel (hydroxypropylcellulose) (HPC) 98 % of control | [1] 101 % of control | dose: 24.0 mg/kg/injection, schedule: Q01DX005 (ip), vehicle: Klucel (hydroxypropylcellulose) (HPC) 95 % of control | [2] 97 % of control | [3] 90 % of control | dose: 100.0 mg/kg/injection, schedule: Q01DX001 (ip), vehicle: saline 109 % of control | dose: 200.0 mg/kg/injection, schedule: Q01DX001 (ip), vehicle: saline 108 % of control | dose: 400.0 mg/kg/injection, schedule: Q01DX001 (ip), vehicle: saline 100 % of control

CSc1nnc(N)s1
inactive: dose: 50.0 mg/kg/injection, schedule: Q01DX009 (ip), vehicle: saline with Tween-80 106 % of control | dose: 100.0 mg/kg/injection, schedule: Q01DX009 (ip), vehicle: saline with Tween-80 93 % of control | dose: 200.0 mg/kg/injection, schedule: Q01DX009 (ip), vehicle: saline with Tween-80 100 % of control

COC(=O)/C=C(\Br)C(=O)OC
inactive: dose: 1.56 mg/kg/injection, schedule: Q01DX009 (ip), vehicle: saline with Tween-80 106 % of control | dose: 3.12 mg/kg/injection, schedule: Q01DX009 (ip), vehicle: saline with Tween-80 98 % of control | dose: 6.25 mg/kg/injection, schedule: Q01DX009 (ip), vehicle: saline with Tween-80 101 % of control

O=C1CSC(c2ccc(Cl)c(Cl)c2)N1c1nncs1 (stereo not given)
inactive: [4] 103 % of control | [5] 93 % of control | dose: 200.0 mg/kg/injection, schedule: Q01DX005 (ip), vehicle: saline with Tween-80 99 % of control

CC(C)(C)c1cc(C(O)(C(F)(F)F)C(F)(F)F)c(Cl)c(C(O)(C(F)(F)F)C(F)(F)F)c1
inactive: [3] 94 % of control | dose: 100.0 mg/kg/injection, schedule: Q01DX005 (ip), vehicle: Klucel (hydroxypropylcellulose) (HPC) 90 % of control | dose: 200.0 mg/kg/injection, schedule: Q01DX005 (ip), vehicle: Klucel (hydroxypropylcellulose) (HPC) 92 % of control

CCN(CC)c1ccc(N=Nc2ccc(C)cc2)cc1
inactive: [6] 89 % of control | [7] 103 % of control | dose: 400.0 mg/kg/injection, schedule: Q01DX009 (ip), vehicle: saline 90 % of control

COC(=O)n1sc(SC)nc1=N
inactive: [1] 88 % of control | [2] 114 % of control | [3] 100 % of control and 114 % of control

COc1ccc([N+](=O)[O-])c(/C=C/C(=O)c2ccccn2)c1
inactive: dose: 12.5 mg/kg/injection, schedule: Q01DX009 (ip), vehicle: distilled water + Tween-80 98 % of control | dose: 25.0 mg/kg/injection, schedule: Q01DX009 (ip), vehicle: distilled water + Tween-80 100 % of control | dose: 50.0 mg/kg/injection, schedule: Q01DX009 (ip), vehicle: distilled water + Tween-80 97 % of control | dose: 100.0 mg/kg/injection, schedule: Q01DX009 (ip), vehicle: distilled water + Tween-80 98 % of control | dose: 200.0 mg/kg/injection, schedule: Q01DX009 (ip), vehicle: distilled water + Tween-80 104 % of control

Cc1nn(C(=O)c2cccnc2)c(-c2ccccc2)c1N=Nc1ccc(S(=O)(=O)Nc2ncccn2)cc1
inactive: [4] 89 % of control | [5] 88 % of control

C=C(C(=O)O)C(N)C(=O)O (stereo not given)
inactive: dose: 25.0 mg/kg/injection, schedule: Q01DX005 (ip), vehicle: saline 98 % of control | dose: 50.0 mg/kg/injection, schedule: Q01DX005 (ip), vehicle: saline 98 % of control | dose: 100.0 mg/kg/injection, schedule: Q01DX005 (ip), vehicle: saline 112 % of control | dose: 200.0 mg/kg/injection, schedule: Q01DX005 (ip), vehicle: saline 97 % of control | dose: 400.0 mg/kg/injection, schedule: Q01DX005 (ip), vehicle: saline 96 % of control

CCCCCCCCCCCC(=O)/C=C/c1ccc(Cl)c(Cl)c1
inactive: dose: 50.0 mg/kg/injection, schedule: Q01DX009 (ip), vehicle: Klucel (hydroxypropylcellulose) (HPC) 102 % of control | dose: 100.0 mg/kg/injection, schedule: Q01DX009 (ip), vehicle: Klucel (hydroxypropylcellulose) (HPC) 90 % of control

CN1C2CCC1CC(OC(=O)/C=C/C(=O)OC1CC3CCC(C1)N3C)C2 (stereo not given)
inactive: dose: 60.0 mg/kg/injection, schedule: Q01DX005 (ip), vehicle: suspension in saline 91 % of control | dose: 120.0 mg/kg/injection, schedule: Q01DX005 (ip), vehicle: suspension in saline 91 % of control

CNC(=O)CC(N)C(=O)O (stereo not given)
inactive: dose: 12.5 mg/kg/injection, schedule: Q01DX009 (ip), vehicle: saline 96 % of control | [8] 94 % of control | [9] 101 % of control | dose: 50.0 mg/kg/injection, schedule: Q01DX009 (ip), vehicle: water 105 % of control | [6] 98 % of control | dose: 100.0 mg/kg/injection, schedule: Q01DX009 (ip), vehicle: water 105 % of control | [7] 113 % of control | dose: 200.0 mg/kg/injection, schedule: Q01DX009 (ip), vehicle: water 109 % of control

S=C(Nc1ccc(N=Nc2ccccc2)cc1)SCc1ccc(Cl)cc1
inactive: [9] 97 % of control | [6] 103 % of control | [7] 100 % of control | dose: 200.0 mg/kg/injection, schedule: Q01DX009 (ip), vehicle: suspension in saline 93 % of control

O=S1(=O)C(CCCCC2=Cc3ccccc3S2(=O)=O)=Cc2ccccc21
inactive: [4] 94 % of control | [5] 100 % of control

CN1CCOc2cc3nc4ccccc4nc3cc21
inactive: [8] 107 % of control | [9] 98 % of control | [6] 105 % of control

O=C1Nc2ccccc2/C1=N\N=c1/scc(-c2ccccc2)n1-c1ccccc1
inactive: dose: 60.0 mg/kg/injection, schedule: Q01DX005 (ip), vehicle: saline with Tween-80 101 % of control and 89 % of control | dose: 120.0 mg/kg/injection, schedule: Q01DX005 (ip), vehicle: saline with Tween-80 100 % of control | dose: 240.0 mg/kg/injection, schedule: Q01DX005 (ip), vehicle: saline with Tween-80 101 % of control and 97 % of control

COc1c2occc2c(OC)c2/c(=N/O)cc(C)oc12
inactive: [9] 107 % of control | [6] 98 % of control | [7] 97 % of control

CC(C)(F)C(N)C(=O)O (stereo not given)
inactive: dose: 60.0 mg/kg/injection, schedule: Q01DX005 (ip), vehicle: saline 101 % of control | dose: 120.0 mg/kg/injection, schedule: Q01DX005 (ip), vehicle: saline 103 % of control | dose: 240.0 mg/kg/injection, schedule: Q01DX005 (ip), vehicle: saline 100 % of control
